Values after ≈ are worked out from the molar mass of the structure shown.

As a reminder, the IC50 is the concentration needed to halve the response being measured.

Holding throughout (type): cell-based
The subject of assay [1] is LTC4-induced contraction of strips of guinea pig lung. The assay is described as follows: inhibition of LTC4-induced contraction of strips of guinea pig lung. To be noted: Cavia porcellus; LTC4 3 ng/ml; indomethacin-pretreated strips (10^-6 g/ml); test substance added after maximum contraction plateau; 37° C.; read-out: IC50 with respect to LTC4. The method, then: (§1) The leukotriene-antagonistic action of the substances of the general formula I according to the invention is determined by the inhibition of the leukotriene-induced contraction of strips of guinea pig lung. The method which is used is a modification of the test described by Foreman, Shelly and Weber (Arch. Int. Pharmacodyn. 278, 193-206 (1985)).
(§2) Guinea pigs are sacrificed by an overdose of ether. The thoracic cavity is opened; the lungs are removed and cut into strips 5 cm long, which are stored in physiological saline. For the measurement, the strips of lung are placed in an organ bath filled with Ringer's solution which is equilibrated at 37° C. and through which carbogen (O2 /CO2 95:5 parts by volume) is passed. The strips are left to equilibrate under a load of 0.5-1 g for 30-60 minutes. The strips of lung are pretreated with indomethacin (10^-6 g/ml of bath liquid) before the test starts.
(§3) The contraction is induced by adding LTC4, LTD4 or LTE4 in a concentration of 3 ng/ml of bath liquid. The test substances are administered therapeutically into the bath, after the maximum contraction plateau has been reached, in several concentrations and at time intervals of 10 minutes. 6-12 strips of lung are used for each concentration of the test substance.
(§4) The concentrations of the test substances at which the contraction is reduced by 50% (IC50) are indicated in μg/ml.

The subject of assay [2] is LTE4-induced contraction of strips of guinea pig lung. The assay is described as follows: inhibition of LTE4-induced contraction of strips of guinea pig lung. To be noted: Cavia porcellus; LTE4 3 ng/ml; indomethacin-pretreated strips (10^-6 g/ml); test substance added after maximum contraction plateau; 37° C.; read-out: IC50 with respect to LTE4. Here is the method:
as §1, §2, §3, §4

In assay [3] the test system is LTD4-induced contraction of strips of guinea pig lung. The assay is described as follows: inhibition of LTD4-induced contraction of strips of guinea pig lung. To be noted: Cavia porcellus; LTD4 3 ng/ml; indomethacin-pretreated strips (10^-6 g/ml); test substance added after maximum contraction plateau; 37° C.; read-out: IC50 with respect to LTD4. Here is the method: as §1, §2, §3, §4

As to `COC(=O)CCSCC(O)Cc1ccccc1OCc1ccccc1` (racemic) [Compound A, Methyl (6RS)-7-(2-benzyloxyphenyl)-6-hydroxy-4-thiaheptanoate], the IC50 was 0.6 to 1 µg/mL (≈ 1.66 to 2.77 µM) in assay [1], 0.6 to 1 µg/mL (≈ 1.66 to 2.77 µM) in assay [2] and 0.6 µg/mL (≈ 1.66 µM) in assay [3].

With `COC(=O)CCSCC(O)Cc1cc(Cl)ccc1OCc1ccccc1` (racemic) [Compound D, Methyl (6RS)-7-(2-benzyloxy-5-chlorophenyl)-6-hydroxy-4-thiaheptanoate], the values for the IC50 in assay [1], in assay [2] and in assay [3] were 6 to 10 µg/mL (≈ 15.2 to 25.3 µM), 1 to 3 µg/mL (≈ 2.53 to 7.6 µM) and 3 µg/mL (≈ 7.6 µM), respectively.

For the compound `O=C(O)CCSCC(O)Cc1cccc(C2CCCC2)c1OCc1ccccc1` (racemic) [Compound C, (6RS)-7-(2-Benzyloxy-3-cyclopentylphenyl)-6-hydroxy-4-thiaheptanoic acid], the IC50 in assay [1] is 3 to 6 µg/mL (≈ 7.24 to 14.5 µM); in assay [2], 3 µg/mL (≈ 7.24 µM); in assay [3], 3 to 6 µg/mL (≈ 7.24 to 14.5 µM).

For the compound `COC(=O)CCSCC(O)Cc1cccc(C2CCCC2)c1OCc1ccccc1` (racemic) [Compound B, Methyl (6RS)-7-(2-benzyloxy-3-cyclopentylphenyl)-6-hydroxy-4-thiaheptanoate], the IC50 in assay [1] is 0.6 µg/mL (≈ 1.4 µM); in assay [2], 3 µg/mL (≈ 7 µM); in assay [3], 1 µg/mL (≈ 2.33 µM).

`OCCSCC(O)Cc1cccc(C2CCCC2)c1OCc1ccccc1` (racemic) [Compound E, (5RS)-6-(2-benzyloxy-3-cyclopentylphenyl)-3-thiahexane-1,5-diol]: the values for the IC50 in assay [1], in assay [2] and in assay [3] were 6 to 10 µg/mL (≈ 15.5 to 25.9 µM), 1 to 3 µg/mL (≈ 2.59 to 7.76 µM) and 6 to 10 µg/mL (≈ 15.5 to 25.9 µM), respectively.

The values above are taken from patent US4855323A, “Leukotriene antagonists, a process for the preparation thereof, and the use thereof for the treatment of diseases” (Hoechst Aktiengesellschaft, priority 1987, dated 1989).
